Legend:
tumor cell [1] = settings: in vitro; cited from earlier work
CD44 = settings: in vitro; cited from earlier work
tumor cell [2] = settings: in vitro; cited from earlier work; remark: listed apart in the source
tumor cells = settings: in vitro; cited from earlier work
TNFα, II-2 = settings: in vitro; cited from earlier work
[3] = examination of internal organs of bromelain-treated rabbits; design: species or system white rabbits; settings: rabbit, in vivo
Protocol: One half of each organ was frozen and the other half was fixed with 10% neutral buffered formalin for 24 hours. Then the fixed organs were washed […] stepwise dehydrated with 70%, 80%, 90%, 100% ethanol and then embedded in paraffin by using Shandon-Histocentre-2. The embedded organ blocks were sectioned in 4 µm thickness with a microtome (McBain, M 820, American Optical Co. USA) and stained with hematoxylin and eosin stain (H.E. stain). The stained specimens were made transparent with xylene, and mounted with permount on microslides.

[4] = rabbit, in vivo
Protocol: After 8 weeks of treatment, the rabbits were anesthetized with injections of ketamine 75 mg/kg in the femoral muscle and sacrificed. Blood samples were collected from the heart of each rabbit to determine the blood analysis consisting of: complete blood count (CBC), Chemistry-7 and 24, (including Liver and renal function tests), lipid profiles (including Total cholesterol, HDL, LDL, VLDL, and triglycerides), coagulation factors consisting of; prothrombin time (PT), partial thromboplastin time (PPT), and immune-globulin-E.
All laboratory blood analysis were performed on rabbits of all 7 groups, The results were tested using student t-test and Microsoft Excel-7 programs.

Row | internal organs, microscopic examination (H.E. stain) [3] | GGTP [4] | HDL [4] | Hb [4] | SGOT [4] | SGPT [4] | TC (total cholesterol) [4] | TRG (triglycerides) [4] | WBC [4] | Substance | tumor cell proliferation, effect (tumor cell [1]) | CD44 expression on metastatic cells, effect (CD44) | tumor cell invasion through extracellular matrix, effect (tumor cell [2]) | immunocytotoxicity of lymphocytes against tumor cells, effect (tumor cells) | secretion of TNFα, II-2, effect (TNFα, II-2) | laboratory blood tests, differences between groups [4]
1 |  |  |  |  |  |  |  |  |  | Ananain [Bromelain F9] | ↓ | ↓ | = | ↑ | ↑ | 
2 | no pathological abnormalities or lesions | 7+—1 | 43.6+—16.5 mg/ | 11.9+—1.9 gm/dl | 110.8+—30.7 u/l | 71.2+—3.8 u/l | 175.6+—36.8 mg/dl | 92.6+—38.8 mg/dl | 7.3+—2.2 k/ul | Bromelain |  |  |  |  |  | no differences among or within each groups
3 |  |  |  |  |  |  |  |  |  | Stem bromelain [Bromelain F4] |  |  | = |  |  | 
